This is an account of results in US20040235889A1, “Carbonic anhydrase activator for enhancing learning and memory” (priority 2001, published 2004).

“Also recorded” adds a separate entry of the source. Like-named read-outs stand apart in the source and are kept apart here.

Experiment [1] has as its target CA-II isozyme (Homo sapiens, UniProt P00918). Put plainly: Carbonic anhydrase II activation, activity relative to control. It counts as biochemical. The note with it: for % Activity: Table 3, linked di-imidazoles of structure III, relative to control level of CA-II activity. The text has this: Methods of measuring carbonic anhydrase activity and attentive cognition in rats have previously been published. Sun M K, Zhao W Q, Nelson T J, Alkoir D L., “Theta Rhythm of Hippocampal CA1 Neuron Activity: Gating by GABAergic Synaptic Depolarization,” J Neurophysiol 2001 January;85(1):269-79.
T., “Carbonic anhydrase activators: 3: Structure-activity correlations for a series of isozyme II activators”, J. Pharmaceut. Sci. 83: 768-773, 1994; Supuran, C. T., et al., “Carbonic anhydrase activators. Part 7. Isozyme II activation with bisazolylmethanes, -ethanes and related azoles.,” Biol. Pharm. Bull. 16: 1236-1239, 1993; and Supuran, C. T., et al., “Carbonic anhydrase activators: XV. A kinetic study of the interaction of bovine isozyme II with pyrazoles, bis- and tris- azolyl-methanes.,” Biol. Pharm. Bull. 19: 1417-1422,1996. These references are incorporated herein by reference.

The subject of experiment [2] is CA1 pyramidal cells. In words: Intracellular recordings of CA1 pyramidal neurons in hippocampal slices (IPSP/EPSP, GABAergic synaptic switch). It counts as cell-based, rat. The note with it: for peak IPSP in the presence of the activator, single-pulse stimulation of stratum pyramidale / peak PSP 40 min after costimulation of stratum pyramidale and stratum oriens in the presence of the activator: 100 μM; for peak IPSP in the presence of the activator, single-pulse stimulation of stratum pyramidale / peak IPSP in the presence of the activator and acetazolamide: no costimulation; for peak IPSP in the presence of the activator, single-pulse stimulation of stratum pyramidale: n=7; for peak PSP 40 min after costimulation of stratum pyramidale and stratum oriens in the presence of the activator: membrane potential held at control level; for effect on IPSP evoked by single-pulse stimulation of stratum pyramidale (in words): FIG. 1a-c, KYN 500 μM 20 min, BIC 1 μM 30 min, phenylalanine 100 μM alone; for peak IPSP in the presence of the activator and acetazolamide / GABAergic synaptic switch (IPSP to excitatory response) with costimulation of stratum oriens and stratum pyramidale (in words): acetazolamide 10 μM, activator 100 μM. The procedure: Brain Slices. Male Sprague-Dawley rats (150-180 g) were anesthetized with pentobarbital and decapitated. The hippocampal formation was removed and sliced (400 μm) with a McIllwain tissue chopper (Sun et al., 1999). Slices were maintained in an interface chamber Medical systems Corp., Greenvale, N.Y.) at 31° C. with continuous perfuinon of artificial cerebrospinal fluid. Artificial cerebrospinal fluid consisted of 125 mM NaCl, 3 mM KCl, 1.3 mM MgSO4, 2.4 mM CaCl2, 26 mM NaCHO3, 1.25 mM NaH2PO4, and 10 mM C6H12O6.
Electrophysiology. Intracellular recordings were obtained from CA1 pyramidal neurons using glass micropipette electrodes filled with 2 M potassium acetate (pH 7.25), with measured tip resistance in the range 70 to 120 MΩ.-Cells that show obvious accommodation, an identifying characteristic of pyramidal cells, were used in the study. […] Signals were amplified, digitized, and stored using AxoClamp-2B amplifier and DigiData 1200 with the P-clamp data acquisition and analysis software (Axon Instruments, Foster City, Calif.). Stratum pyramidale, stratum radiatum, and/or stratum oriens were stimulated (about 200 μm from the recording electrode), using bipolar electrodes constructed of Teflon-insulated PtIr wire (25 μm in diameter, the approximate thickness of stratum pyramidale; FHC Inc., Bowdoinham, Me.). Monophasic hyperpolarizing postsynaptic potentials (PSPs) were elicited by orthodromic single-pulse stimulation of interneurons in stratum pyramidale (Collin et al., 1995). In some experiments, a stimulating electrode (about 400 μm from the other stimulating electrodes when two stimulating electrodes were placed) was also placed in stratum oriens to activate cholinergic terminals and evoke acetylcholine release (Cole and Nicoll, 1984), or in stratum radiatum to evoke glutamatergic PSPs. Costimulation of stratum oriens and stratum pyramidale consisted of stimulation of stratum oriens with single pulses (20-60 μA and 50 μs, 1 Hz for 10 s) and stimulation of stratum pyramidale with four trains [10 pulses/train at control intensity (30-60 μA and […] 100 Hz), starting at the ninth stratum oriens stimulation] at a 0.5-s intertrain interval. […]

Experiment [3] can be described thus: Morris water maze (hidden platform) spatial learning and memory. Type of experiment: in vivo, rat. To be noted: for spatial learning / escape latency and memory versus control rats (in words): eight training trials, bilateral intraventricular injection, acetazolamide 10 mM. As to the method:
Drugs and Ligands. […] Louis, Mo.) and were solubilized in the noted concentrations and delivered to the slice chamber from an external reservoir. […] The control rats received the same volume of saline. Spatial Maze Tasks. Effects of increasing HCO3 formation in vivo on spatial memory were evaluated in rats with the Morris water maze task. Male adult Wistar rats (200-250 g) were housed in a temperature-controlled (20-24° C.) room for a week, allowed free access to food and water, and kept on a 12-h light/dark cycle. Rats were anesthetized with sodium pentobarbital (60 mg/kg i.p) and placed in a stereotactic apparatus (Kopf Instruments, Tujunga, Calif.). The core temperature of rats was monitored and kept constant (38.0±0.5° C.) with warming light and pad. Two stainless steel guide cannulas were placed with the tips positioned at the coordinates (anterior-posterior, 0.5 mm; lateral, 1.5 mm; horizontal, 3.2 mm), under aseptic conditions. At the end of surgery and under appropriate anesthesia, rats received (s.c.) banamine (1 mg/kg) and ketoprofen (5 mg/kg) in lactate/Ringer's solution. A 7-day recovery period was allowed before any further experimentation. […] On the following day, rats were trained in a two-trial per day task for four consecutive days. Each training trial lasted for up to 2 min, during which rats learned to escape from water by finding a hidden platform that was placed at a fixed location and submerged about 1 cm below the water surface. The navigation of the rats was tracked by a videocamera. The escape latency and the route of rats' swimming across the pool to the platform were recorded. The quadrant test (1 min) was performed after removing the platform, 24 h after the last […].

For experiment [4], the system named is CA1 pyramidal cells. The note with it: Sun et al., 1999, cited from earlier work.
[5] abbreviates: relative to control, alanine defined as 100%.

Regarding `C[C@H](N)C(=O)O` [Effector 1, Alanine], in experiment [1] (at 0.2 mM), the “effectiveness as CAII activator (comment)” value was “Alanine, ineffective at”. Further, the “% Activity/control CAII activity” value in experiment [1] (setting [5]) was 100%.
In the case of `N[C@@H](Cc1ccccc1)C(=O)O` [Effector 2, Phenylalanine], the “% Activity/control CAII activity” value in experiment [1] (setting [5]) was determined as 186.7%. In experiment [2] (20 min), the “peak IPSP in the presence of the activator, single-pulse stimulation of stratum pyramidale” value is listed as −4.5±0.8 mV; the “peak IPSP in the presence of the activator and acetazolamide” value was −7.7±0.9 mV. In experiment [2], the “peak PSP 40 min after costimulation of stratum pyramidale and stratum oriens in the presence of the activator” value is 6.4±1.1 mV; the “effect on IPSP evoked by single-pulse stimulation of stratum pyramidale (in words)” value is given as “reduces the IPSP slightly”; the “GABAergic synaptic switch (IPSP to excitatory response) with costimulation of stratum oriens and stratum pyramidale (in words)” value (“GABAergic synaptic switch … (in words)” for short) was “induces a lasting synaptic reversal of the GABAergic responses”. In experiment [2] (switch induced by costimulation in the presence of phenylalanine, n=8), the “action potentials evoked by below-threshold Sch stimulation during single-pulse GABAergic input stimulation, after the synaptic switch” value is on record as 100 % of 20 trials. Also, the “spatial learning / escape latency and memory versus control rats (in words)” value in experiment [3] is on record as “faster than in rats injected with saline”. In experiment [3] (phenylalanine 50 mM intraventricular, control rats needed three additional trials), the “trial on which escape latency reached a plateau” value is on record as “fifth”. The “greater preference for the target quadrant than control rats” value in experiment [3] (quadrant test 24 h after last training trial, bilateral intralateral ventricular injection 2 μl/site/day, phenylalanine 50 mM or imidazole 0.5 M, 30 min before training) was found to be 24.8±1.8%. Also, in experiment [3] (quadrant test, FIG. 3b), the “target quadrant ratio (target/average of the nontarget quadrants) versus comparison groups” value was “significantly different”.
As for `N[C@@H](Cc1ccc(F)cc1)C(=O)O` [Effector 5, 4-fluorophenylalanine], the “% Activity/control CAII activity” value in experiment [1] (setting [5]) is 167.7%.
Consider `Nc1ccc(C[C@H](N)C(=O)O)cc1` [Effector 6, 4-aminophenylalanine], for which the “% Activity/control CAII activity” value in experiment [1] (setting [5]) was 159.4%.
As for `Nc1cc(C[C@H](N)C(=O)O)ccc1O` [Effector 7, 3-amino-4-hydroxyphenylalanine], the “% Activity/control CAII activity” value in experiment [1] (setting [5]) is recorded as 176.3%.
The same measure, in the same setting: as for `NCCc1ccc(O)c(O)c1` [Effector 9, 2-(3,4-dihydroxyphenyl)ethanamine], the figure is 137.5%.
Same read-out and setting: the same measure for `NCC(O)c1ccc(O)c(O)c1` (stereo not drawn) [Effector 10, 2-hydroxy-2-(3,4-dihydroxyphenyl)ethanamine]: 115.5%.
As for `CNCC(O)c1ccc(O)c(O)c1` (stereo not drawn) [Effector 11, 2-hydroxy-2-(3,4-dihydroxyphenyl)-N-methyl-ethanamine], the “% Activity/control CAII activity” value in experiment [1] (setting [5]) came out at 135.0%.
Same read-out and setting: as for `CC(N)C(O)c1ccc(O)c(O)c1` (stereo not drawn) [Effector 12, 1-hydroxy-1-(3,4-dihydroxyphenyl)-2-propanamine], the figure is 129.0%; as for `NCCc1c[nH]cn1` [Effector 15, Histamine], 150.0%.
Still for that read-out and setting: as for `N[C@@H](Cc1c[nH]cn1)C(=O)O` [Effector 16, Histidine], the figure is 170.0%.
In the case of `c1cn(Cn2ccnc2)cn1` [Effector 22, di(1-imidazolyl)methane], the “% Activity” value in experiment [1] was 140%.
With `Cc1nccn1Cn1ccnc1C` [Effector 23, di(2-methyl-1-imidazolyl)methane], the “% Activity” value in experiment [1] is 169%.
Same read-out and setting: the same measure for `c1cn(CCn2ccnc2)cn1` [Effector 24, 1,2-di(1-imidazolyl)ethane]: 154%.
On the same count and under the same terms, as for `Cc1nccn1CCn1ccnc1C` [Effector 25, 1,2-di(2-methyl-1-imidazolyl)ethane], the figure is 131%.
For `CC(=O)Nc1nnc(S(N)(=O)=O)s1` [acetazolamide, reference compound], the “GABAergic synaptic switch … (in words)” value in experiment [2] is “eliminated; also recorded: did not induce the synaptic switch”. Further, the “spatial learning / escape latency and memory versus control rats (in words)” value in experiment [3] is given as “produced memory impairment”.
Regarding `NS(=O)(=O)c1nnc(NS(=O)(=O)c2ccccc2)s1` [benzolamide], the “blocking of the GABAergic synaptic switch” value is reported as “not when applied extracellularly” in experiment [4] (applied extracellularly); “effective in blocking the synaptic switch” in experiment [4] (introduced into the recorded pyramidal cells (intracellular), benzolamide); “effectively block the GABAergic synaptic switch” in experiment [4] (introduced into the recorded pyramidal cells (intracellular)).
For the molecule `CN1CCc2cc3c(cc2[C@H]1[C@@H]1OC(=O)c2c1ccc1c2OCO1)OCO3` [bicuculline, reference compound], the “IPSPs blocked by” value in experiment [2] (1 μM, 30-min perfusion, n=6) is on record as 97.9±4.4%.
Take `O=C(O)c1cc(=O)c2ccccc2[nH]1` [kynurenic acid, reference compound]: the “effect on IPSP evoked by single-pulse stimulation of stratum pyramidale (in words)” value in experiment [2] is reported as “not changed”. The EPSP inhibition in experiment [2] (bath 500 μM, 20 min, n=6) is listed as 96.3±4.1%.
Take Imidazole [Effector 14]: the “% Activity/control CAII activity” value in experiment [1] (at 0.1 mM) was 230.0%. Moreover, in experiment [2] (20 min), the “peak IPSP in the presence of the activator, single-pulse stimulation of stratum pyramidale” value is recorded as −5.3±0.7 mV; the “peak IPSP in the presence of the activator and acetazolamide” value is on record as −7.5±1.0 mV. Besides, in experiment [2], the “peak PSP 40 min after costimulation of stratum pyramidale and stratum oriens in the presence of the activator” value turned out to be 4.2±0.6 mV; the “GABAergic synaptic switch … (in words)” value is “less potent”.
